Consider 27 compounds from patent US10011595B2 (Merck Sharp & Dohme Corp., priority 2014, dated 2018).

This test deals with human orexin-2 receptor (Homo sapiens (Human), UniProt O43614). The test can be described thus: FLIPR Ca2+ Flux Assay, orexin-2 receptor. The class given is cell-based. The settings on record: CHO cells expressing the human orexin-2 receptor; agonist 70 pM Ala-6,12 orexin-A; read-out: hOX2R FLIPR IC50. On the procedure:
In a typical experiment the OX1 and OX2 receptor antagonistic activity of the compounds of the present invention was determined in accordance with the following experimental method. For intracellular calcium measurements, Chinese hamster ovary (CHO) cells expressing the rat orexin-1 receptor or the human orexin-2 receptor, are grown in Iscove's modified DMEM containing 2 mM L-glutamine, […], 1% hypoxanthine-thymidine supplement, 100 U/ml penicillin, 100 μg/ml streptomycin and 10% heat-inactivated fetal calf serum (FCS). The cells are seeded at 20,000 cells/well into Becton-Dickinson black 384-well clear bottom sterile plates coated with poly-D-lysine. All reagents were from GIBCO-Invitrogen Corp. The seeded plates are incubated overnight at 37° C. and 5% CO2. Ala-6,12 human orexin-A as the agonist is prepared as a 1 mM stock solution in 1% bovine serum albumin (BSA) and diluted in assay buffer (HBSS containing 20 mM HEPES, 0.1% BSA and 2.5 mM probenecid, pH7.4) for use in the assay at a final concentration of 70 pM. Test compounds are prepared as 10 mM stock solution in DMSO, then diluted in 384-well plates, first in DMSO, then assay buffer. On the day of the assay, cells are washed 3 times with 100 μl assay buffer and then incubated for 60 min (37° C., 5% CO2) in 60 μl assay buffer containing 1 μM Fluo-4AM ester, 0.02% pluronic acid, and 1% BSA. The dye loading solution is then aspirated and cells are washed 3 times with 100 μl assay buffer. 30 μl of that same buffer is left in each well. Within the Fluorescent Imaging Plate Reader (FLIPR, Molecular Devices), test compounds are added to the plate in a volume of 25 μl, incubated for 5 min and finally 25 μl of agonist is added. Fluorescence is measured for each well at 1 second intervals for 5 minutes and the height of each fluorescence peak is compared to the height of the fluorescence peak induced by 70 pM Ala-6,12 orexin-A with buffer in place of antagonist. For each antagonist, IC50 value (the concentration of compound needed to inhibit 50% of the agonist response) is determined. Alternatively, compound potency can be assessed by a radioligand binding assay (described in Bergman et. al. Bioorg. Med. Chem. Lett. 2008, 18, 1425-1430) in which the inhibition constant (Ki) is determined in membranes prepared from CHO cells expressing either the OX1 or OX2 receptor. The intrinsic orexin receptor antagonist activity of a compound which may be used in the present invention may be determined by these assays.

human orexin-2 receptor, sequence (O43614 whole entry): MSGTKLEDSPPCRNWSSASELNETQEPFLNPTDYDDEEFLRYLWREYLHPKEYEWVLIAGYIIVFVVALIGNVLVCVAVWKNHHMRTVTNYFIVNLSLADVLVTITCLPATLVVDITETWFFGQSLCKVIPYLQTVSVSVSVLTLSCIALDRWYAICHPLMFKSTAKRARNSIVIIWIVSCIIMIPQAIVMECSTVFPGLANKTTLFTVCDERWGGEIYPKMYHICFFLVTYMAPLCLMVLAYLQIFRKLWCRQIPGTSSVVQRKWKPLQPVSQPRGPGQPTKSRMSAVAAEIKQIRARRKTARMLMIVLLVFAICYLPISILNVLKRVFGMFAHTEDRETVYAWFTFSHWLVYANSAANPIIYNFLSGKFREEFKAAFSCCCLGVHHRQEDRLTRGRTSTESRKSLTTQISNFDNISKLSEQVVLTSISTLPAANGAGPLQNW

The IC50 is the concentration that inhibits the measured activity by half. Consider `CCN(CCN(C)c1nccc(C(C)(C)O)n1)C(=O)c1ccccc1-n1nccn1` [Example H-1, N-ethyl-N-(2-((4-(2-hydroxypropan-2-yl)pyrimidin-2-yl)(methy)amino)ethyl)-2-(2H-1,2,3-triazol-2-yl)benzamide], for which the IC50 was 11 nM. The value for `CCN(CCN(C)c1nc(C)cc(C)n1)C(=O)c1nccnc1-c1ccccn1` [Example B-33, N-{2-[(4,6-dimethylpyrimidin-2-yl)(methyl)amino]ethyl}-N-ethyl-3-pyridin-2-ylpyrazine-2-carboxamide] was 23 nM; that for `CCOc1ncccc1C(=O)N(CC)CCN(C)c1cccc(C(C)(C)O)n1` [Example I-25, 2-ethoxy-N-ethyl-N-(2-((6-(2-hydroxypropan-2-yl)pyridin-2-yl)(methyl)amino)ethyl)nicotin-amide] was 466 nM. The value for `CCOc1cccc(C(=O)N(CC)CCN(C)c2cc(C#N)ccn2)c1OC` [Example F-29, N-{2-[(4-cyanopyridin-2-yl)(methyl)amino]ethyl}-3-ethoxy-N-ethyl-2-methoxybenzamide] was 10000 nM; that for `CCN(CCN(C)c1nc(C)cc(C)n1)C(=O)c1ccc(OC)nc1C1CC1` [Example B-19, 2-cyclopropyl-N-{2-[(4,6-dimethylpyrimidin-2-yl)(methyl)amino]ethyl}-N-ethyl-6-methoxypyridine-3-carboxamide] was 32.1 nM. The value for `CCN(CCN(C)c1nc(C)cc(C)n1)C(=O)c1cccnc1-c1ccccc1` [Example B-9, N-(2-((4,6-dimethylpyrimidin-2-yl)(methyl)amino)ethyl)-N-ethyl-2-phenylnicotinamide] was 26.4 nM. As to `CCN(CCN(C)c1cccc(C(C)(C)O)n1)C(=O)c1nccnc1-n1cccn1` [Example I-11, N-ethyl-N-(2-((6-(2-hydroxypropan-2-yl)pyridin-2-yl)(methyl)amino)ethyl)-3-(1H-pyrazol-1-yl)pyrazine-2-carboxamide], the half-maximal inhibitory concentration (IC50) amounted to 328 nM. To `CCN(CCN(C)c1cccc(C(C)(C)O)n1)C(=O)c1cccnc1OC(C)C` [Example I-21, N-ethyl-N-(2-((6-(2-hydroxypropan-2-yl)pyridin-2-yl)(methyl)amino)ethyl)-2-isopropoxynicotinamide] belongs 387 nM. The value for `CCN(CCN(C)c1nc(C)cc(C)n1)C(=O)c1ccccc1OC(F)F` [Example B-8, 2-(difluoromethoxy)-N-(2-((4,6-dimethylpyrimidin-2-yl)(methyl)amino)ethyl)-N-ethylbenzamide] was 18.5 nM. In the case of `CCN(CCN(C)c1nccc(C(C)(C)O)n1)C(=O)c1nccnc1-n1cccn1` [Example H-32, N-ethyl-N-(2-((4-(2-hydroxypropan-2-yl)pyrimidin-2-yl)(methyl)amino)ethyl)-3-(1H-pyrazol-1-yl)pyrazine-2-carboxamide], the IC50 stood at 54 nM. With `CCN(CCN(C)c1nc(C)cc(C)n1)C(=O)c1ccccc1C1CC1` [Example B-1, 2-cyclopropyl-N-(2-((4,6-dimethylpyrimidin-2-yl)(methyl)amino)ethyl)-N-ethylbenzamide], the IC50 was 26.4 nM.

For `CCOc1ncccc1C(=O)N(CC)CCN(C)c1nc(C)cc(C)n1` [Example B-6, N-(2-((4,6-dimethylpyrimidin-2-yl)(methyl)amino)ethyl)-2-ethoxy-N-ethylnicotinamide], the IC50 was 68.1 nM. The value for `CCN(CCN(C)c1cccc(C(C)(C)O)n1)C(=O)c1ccccc1C1CC1` [Example I-13, 2-cyclopropyl-N-ethyl-N-(2-((6-(2-hydroxypropan-2-yl)pyridin-2-yl)(methyl)amino)ethyl)benz-amide] was 53.7 nM; that for `CCOc1ncccc1C(=O)N(CC)CCN(C)c1nccc(C(C)(C)O)n1` [Example H-15, 2-ethoxy-N-ethyl-N-(2-((4-(2-hydroxypropan-2-yl)pyrimidin-2-yl)(methyl)amino)ethyl) nicotinamide] was 77.3 nM; that for `CCN(CCN(C)c1cc(C#N)ccn1)C(=O)c1c(F)cccc1-n1nccn1` [Example F-15, N-{2-[(4-cyanopyridin-2-yl)(methyl)amino]ethyl}-N-ethyl-2-fluoro-6-(2H-1,2,3-triazol-2-yl)benzamide] was 33.9 nM. The value for `CCN(CCN(C)c1nccc(C(C)(C)O)n1)C(=O)c1ccccc1OCC(F)(F)F` [Example H-20, N-ethyl-N-(2-((4-(2-hydroxypropan-2-yl)pyrimidin-2-yl)(methyl)amino)ethyl)-2-(2,2,2-trifluoroethoxy)benzamide] was 32 nM; that for `CCN(CCN(C)c1cccc(C(C)(C)O)n1)C(=O)c1ccccc1-n1ncnn1` [Example I-23, N-ethyl-N-(2-((6-(2-hydroxypropan-2-yl)pyridin-2-yl)(methyl)amino)ethyl)-2-(2H-tetrazol-2-yl)benzamide] was 69.6 nM.

Turning to `CCN(CCN(C)c1cc(C#N)ccn1)C(=O)c1cccnc1OCc1ccccc1` [Example F-6, 2-(benzyloxy)-N-{2-[(4-cyanopyridin-2-yl)(methyl)amino]ethyl}-N-ethylpyridine-3-carboxamide], the IC50 came out at 97.9 nM. The value for `CCN(CCN(C)c1cc(C#N)ccn1)C(=O)c1ccccc1-n1cnnn1` [Example F-25, N-{2-[(4-cyanopyridin-2-yl)(methyl)amino]ethyl}-N-ethyl-2-(1H-tetrazol-1-yl)benzamide] was 4390 nM.

On to `CC(C)CN(CCN(C)c1cc(C#N)ccn1)C(=O)c1ccccc1-n1nccn1` [Example G-8, N-(2-((4-cyanopyridin-2-yl)(methyl)amino)ethyl)-N-isobutyl-2-(2H-1,2,3-triazol-2-yl)benzamide], for which the IC50 came out at 12.2 nM. The value for `CCN(CCN(C)c1nccc(C(C)(C)O)n1)C(=O)c1ccccc1OC(F)(F)F` [Example H-27] was 10 nM; that for `CCCCN(CCN(C)c1cc(C#N)ccn1)C(=O)c1ccccc1-n1nccn1` [Example G-5, N-butyl-N-(2-((4-cyanopyridin-2-yl)(methyl)amino)ethyl)-2-(2H-1,2,3-triazol-2-yl)benzamide] was 19.8 nM; that for `CCN(CCN(C)c1cc(C#N)ccn1)C(=O)c1cccnc1Oc1ccccc1` [Example F-7, N-{2-[(4-cyanopyridin-2-yl)(methyl)amino]ethyl}-N-ethyl-2-phenoxypyridine-3-carboxamide] was 10000 nM. To `CCN(CCN(C)c1nc(C)cc(C)n1)C(=O)c1ccccc1OCC(F)F` [Example B-20, 2-(2,2-difluoroethoxy)-N-{2-[(4,6-dimethylpyrimidin-2-yl)(methyl)amino]ethyl}-N-ethylbenzamide] belongs 9.2 nM; to `CCN(CCN(C)c1cc(C#N)ccn1)C(=O)c1ccccc1C1(C#N)CC1` [Example F-26, 2-(1-cyanocyclopropyl)-N-{2-[(4-cyanopyridin-2-yl)(methyl)amino]ethyl}-N-ethylbenzamide], 18.9 nM. The value for `CCOc1ccccc1C(=O)N(CC)CCN(C)c1cccc(C(C)(C)O)n1` [Example I-18, 2-ethoxy-N-ethyl-N-(2-((6-(2-hydroxypropan-2-yl)pyridin-2-yl)(methyl)amino)ethyl)benz-amide] was 154 nM; that for `CCN(CCN(C)c1nccc(C#N)c1C)C(=O)c1ccccc1-n1nccn1` [Example E-7, N-(2-((4-cyano-3-methylpyridin-2-yl)(methyl)amino)ethyl)-N-ethyl-2-(2H-1,2,3-triazol-2-yl)benzamide] was 198 nM.
